This is an account of results in EP0538305B1, “P[…] F[…] RELATED GUANINE DERIVATIVES FOR THE TREATMENT OF THE HIV-1 INFECTIONS” (BEECHAM GROUP PLC, priority 1990, dated 1992).

The experiment concerns the target T1, HIV-1 reverse transcriptase (Human immunodeficiency virus type 1 group M subtype B, UniProt P04585).
T1 construct: equivalent to 2.85nM for an equimolar mixture of p66 and p51 polypeptides; host or cells: E. coli
Description: Assay for reverse transcriptase activity (incorporation of radioactive dGMP from [3H]dGTP into Poly (rC). p(dG)12-18). The conditions noted are these: for IC50: approximate, from plot of % inhibition against concentration of inhibitor, 1.02µM [3H]dGTP, 65 minutes at 37°C. Format: biochemical, human immunodeficiency virus type 1 (HIV-1). As for the experimental part:
Chemicals [^3H]dGTP (16.3 Ci/mmol) was purchased from Amersham International, Aylesbury, U.K. Template primer Poly (rC). p(dG)12-18 (1:1, rC:dG ratio) and 2',3'-dideoxyguanosine-5-triphosphate (ddGTP) were obtained from Pharmacia Ltd., Milton Keynes, U.K. Penciclovir triphosphate (PCV-TP) was prepared in the laboratories of SmithKline Beecham Pharmaceuticals, Great Burgh, United Kingdom.
Reverse transcriptase Purified, E. coli expressed HIV-1 reverse transcriptase (RT) was supplied by the Protein Biochemistry Department of SmithKline Beecham Pharmaceuticals, Upper Merion, U.S.A. The enzyme was stored and diluted in a buffer containing 50mM Tris-HCl (pH 8.0), 10mM Hepes, 110mM NaCl, 5.7mM DTT, 0.3mM EDTA, 0.06% Triton X-100, 50% glycerol.
Assay for reverse transcriptase activity The reaction mixture for the HIV-1 RT assay contained in a volume of 120µl: 33mM Tris HCl (pH 8.0), 100mM KCl, 3.3mM MgCl2, 3.3mM dithiothreitol, 0.2mM glutathione, 0.33mM EGTA (ethylene glycol-bis-(β-aminoethyl ether) N,N-tetra acetic acid), 0.033% Triton X-100, 1.02µM [^3H]dGTP, 0-12.39µM inhibitors ddGTP, PCV-TP, 0.3 A260 units/ml Poly (rC). p(dG)12-18 and 167ng/ml RT (equivalent to 2.85nM for an equimolar mixture of p66 and p51 polypeptides). The reaction mixtures without RT were prepared in the microwells of a 96-well plate and preincubated at 37°C before the reactions were started by the addition of 20µl of the enzyme solution. The plates were then incubated for 65 minutes at 37°C. The incorporation rate was linear for the uninhibited control reaction over this time period. The reactions were terminated by the addition of 40µl of EDTA solution (0.2M, pH7.0). The individual reaction mixtures were transferred to a DEAE filter mat (1205-405, LKB Wallac, Finland), prewetted with 0.3M NaCl/0.03M Na citrate, using a cell harvester (1295-001, LKB Wallac). The filter mat was washed three times in the NaCl/Na citrate buffer and then once in 95% ethanol. Scintillation fluid (Beta Plate Scint, LKB Wallac) was added to the dried filter, and the reaction mixtures assayed for incorporation of radioactive dGMP in an LKB 1205 Beta Plate Liquid Scintillation Counter.

Usually inhibition stands for the percentage by which the read-out fell short of the control. What is called IC50 is the concentration needed to halve the response being measured.

`Nc1nc2c(ncn2[C@H]2CC[C@@H](COP(=O)(O)OP(=O)(O)OP(=O)(O)O)O2)c(=O)[nH]1` [ddGTP, 2',3'-dideoxyguanosine-5-triphosphate, reference compound]: the IC50 came to 25 nM. Besides, the inhibition at 0.001 µM (1 nM ddGTP) amounted to 0%. The “Incorporation of dGMP” value (1 nM ddGTP, uninhibited control 117892) worked out at 119726 c.p.m. Besides, where the note is “10 nM ddGTP”, the inhibition at 0.01 µM was 23.7%. For the same molecule, under “10 nM ddGTP, uninhibited control 117892”, the “Incorporation of dGMP” value is listed as 89949 c.p.m. The inhibition at 0.025 µM (25 nM ddGTP) was 50.2%. Also, where the note is “25 nM ddGTP, uninhibited control 117892”, the “Incorporation of dGMP” value turned out to be 58703 c.p.m. Further, under “50 nM ddGTP”, the inhibition at 0.05 µM amounted to 70.2%. Also, the “Incorporation of dGMP” value (50 nM ddGTP, uninhibited control 117892) worked out at 35091 c.p.m. In addition, where the note is “75 nM ddGTP”, the inhibition at 0.075 µM stood at 77.8%. Further, for the setting “75 nM ddGTP, uninhibited control 117892”, the “Incorporation of dGMP” value amounted to 26132 c.p.m. Also, where the note is “100 nM ddGTP”, the inhibition at 0.1 µM is 81.2%. Also, the “Incorporation of dGMP” value (100 nM ddGTP, uninhibited control 117892) is recorded as 22161 c.p.m.
In the case of `Nc1nc2c(ncn2CCC(CO)COP(=O)(O)OP(=O)(O)OP(=O)(O)O)c(=O)[nH]1` (racemic) [PCV-TP, Penciclovir triphosphate], the IC50 turned out to be 4300 nM. Also, the inhibition at 0.124 µM (0.124 µM PCV-TP) came out at 4%. Besides, where the note is “0.124 µM PCV-TP, uninhibited control 88892”, the “Incorporation of dGMP” value is reported as 85313 c.p.m. Besides, the inhibition at 1.24 µM (1.24 µM PCV-TP) came to 21.2%. For the same molecule, for the setting “1.24 µM PCV-TP, uninhibited control 88892”, the “Incorporation of dGMP” value stood at 70061 c.p.m. Besides, under “3.10 µM PCV-TP”, the inhibition at 3.1 µM came out at 41.7%. In addition, the “Incorporation of dGMP” value (3.10 µM PCV-TP, uninhibited control 88892) is given as 51866 c.p.m. Where the note is “6.19 µM PCV-TP”, the inhibition at 6.19 µM came out at 63%. Further, for the setting “6.19 µM PCV-TP, uninhibited control 88892”, the “Incorporation of dGMP” value was found to be 32921 c.p.m. Further, the inhibition at 9.29 µM (9.29 µM PCV-TP) was determined as 70.3%. Besides, where the note is “9.29 µM PCV-TP, uninhibited control 88892”, the “Incorporation of dGMP” value was 26436 c.p.m. Besides, the inhibition at 12.39 µM (12.39 µM PCV-TP) was determined as 73.2%. Under “12.39 µM PCV-TP, uninhibited control 88892”, the “Incorporation of dGMP” value turned out to be 23844 c.p.m.
